These results are taken from patent US8871753B2, “Macrocyclic compounds and their use as kinase inhibitors” (Incyte Corporation, priority 2008, dated 2014).

Assay type in all cases: biochemical
The target of test [1] is T1, human JAK1 (a.a. 837-1142) (Homo sapiens, UniProt P23458).
T1 construct: human JAK1 (a.a. 837-1142); His tag (N); made in house; host or cells: insect cells (baculovirus)
Nature of the test: In vitro JAK kinase assay (HTRF, phosphorylation of a biotinylated peptide), JAK1. To be noted: Table B1; read-out: JAK1 IC50. Put shortly:
(§1)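 Kinase activity was measured as phosphorylation of a biotinylated peptide, with ATP at 90 μM for JAK1, 30 μM for JAK2 and 3 μM for JAK3. Reactions ran 1 hr at room temperature, were stopped with EDTA plus SA-APC and Eu-Py20, and were read by HTRF after 40 minutes of antibody binding.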
For orientation: Time-resolved FRET reads energy transfer from a long-lived donor to a nearby acceptor.

Test [2] has as its target T2, human JAK2 (a.a. 828-1132) (Homo sapiens, UniProt O60674).
T2 construct: JAK2 (a.a. 828-1132); His tag (N); made in house; host or cells: insect cells (baculovirus)
Nature of the test: In vitro JAK kinase assay (HTRF, phosphorylation of a biotinylated peptide), JAK2. To be noted: Table B1. Put shortly: as §1

For test [3], the target named is T3, human JAK3 (a.a. 781-1124) (Homo sapiens, UniProt P52333).
T3 construct: JAK3 (a.a. 781-1124); His tag (N); made in house; host or cells: insect cells (baculovirus)
Nature of the test: In vitro JAK kinase assay (HTRF, phosphorylation of a biotinylated peptide), JAK3. To be noted: Table B1. Put shortly: as §1

The target of a further test is TYK2 (Homo sapiens, UniProt P29597). The experiment in a line: TYK2 kinase inhibition (Table A1). Conditions: Table B1.
Test [4] concerns the target T4, Recombinant Human Anaplastic Lymphoma Kinase (Homo sapiens, UniProt Q9UM73).
T4 construct: purchased Invitrogen, Carlsbad, Calif
The experiment in a line: ALK HTRF kinase assay. Conditions: for ALK % of inhibition at a concentration of 500 nM or 1 mM: compound at a concentration of 500 nM or 1 mM (not specified), cells shown as percentage; for IC50: Table B1, cells without percent sign. Summed up:
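Biotinylated peptide substrate, recombinant human ALK; detection via europium-chelate antibody to phosphotyrosine paired with streptavidin-APC. Potency expressed as IC50 from four-parameter curve fitting.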

As usually defined, the IC50 is the concentration at which inhibition is half-maximal.

Where a name gives a salt, the structure may show the parent alone.

T4 sequence (Q9UM73 19-1620): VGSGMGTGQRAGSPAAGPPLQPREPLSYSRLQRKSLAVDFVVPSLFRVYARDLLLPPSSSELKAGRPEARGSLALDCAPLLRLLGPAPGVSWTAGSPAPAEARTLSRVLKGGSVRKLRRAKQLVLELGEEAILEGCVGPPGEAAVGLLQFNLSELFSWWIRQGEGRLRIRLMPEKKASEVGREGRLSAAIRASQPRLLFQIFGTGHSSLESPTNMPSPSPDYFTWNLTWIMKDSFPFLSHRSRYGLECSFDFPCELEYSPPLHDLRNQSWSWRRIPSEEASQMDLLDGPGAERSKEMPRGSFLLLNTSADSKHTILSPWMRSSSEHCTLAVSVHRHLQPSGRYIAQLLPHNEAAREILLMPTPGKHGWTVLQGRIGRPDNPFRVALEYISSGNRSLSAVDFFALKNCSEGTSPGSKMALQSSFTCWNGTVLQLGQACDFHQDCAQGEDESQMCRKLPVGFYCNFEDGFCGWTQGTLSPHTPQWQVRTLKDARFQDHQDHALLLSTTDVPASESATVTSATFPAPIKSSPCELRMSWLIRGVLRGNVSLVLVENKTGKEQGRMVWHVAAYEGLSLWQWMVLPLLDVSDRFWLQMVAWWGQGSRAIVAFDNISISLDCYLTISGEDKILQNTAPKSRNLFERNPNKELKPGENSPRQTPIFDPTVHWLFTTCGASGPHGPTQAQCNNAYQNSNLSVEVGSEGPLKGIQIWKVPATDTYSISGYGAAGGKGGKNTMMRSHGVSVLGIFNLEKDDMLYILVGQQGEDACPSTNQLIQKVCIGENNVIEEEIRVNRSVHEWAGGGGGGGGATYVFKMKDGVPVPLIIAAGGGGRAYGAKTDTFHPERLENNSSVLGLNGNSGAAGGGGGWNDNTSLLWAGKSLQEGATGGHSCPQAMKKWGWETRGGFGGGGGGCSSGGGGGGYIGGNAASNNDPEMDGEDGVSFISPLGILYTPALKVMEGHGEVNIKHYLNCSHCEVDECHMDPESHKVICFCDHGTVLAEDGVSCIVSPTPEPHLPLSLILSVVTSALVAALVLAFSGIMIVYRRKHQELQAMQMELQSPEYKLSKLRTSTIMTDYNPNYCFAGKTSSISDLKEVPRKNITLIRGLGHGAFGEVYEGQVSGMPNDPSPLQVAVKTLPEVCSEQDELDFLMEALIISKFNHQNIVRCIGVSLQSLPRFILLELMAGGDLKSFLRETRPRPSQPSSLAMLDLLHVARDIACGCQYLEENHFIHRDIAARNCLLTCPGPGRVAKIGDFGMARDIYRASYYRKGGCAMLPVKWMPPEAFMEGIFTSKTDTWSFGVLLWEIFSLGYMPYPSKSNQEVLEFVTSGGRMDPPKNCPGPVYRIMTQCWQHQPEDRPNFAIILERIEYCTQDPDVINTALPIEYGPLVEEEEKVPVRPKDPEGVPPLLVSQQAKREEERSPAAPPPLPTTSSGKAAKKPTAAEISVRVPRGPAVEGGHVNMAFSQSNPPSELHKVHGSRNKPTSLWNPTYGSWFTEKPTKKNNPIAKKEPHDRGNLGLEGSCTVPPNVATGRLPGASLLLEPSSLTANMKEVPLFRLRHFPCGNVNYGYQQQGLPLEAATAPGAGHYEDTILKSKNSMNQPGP
T1 sequence (P23458 849-1154): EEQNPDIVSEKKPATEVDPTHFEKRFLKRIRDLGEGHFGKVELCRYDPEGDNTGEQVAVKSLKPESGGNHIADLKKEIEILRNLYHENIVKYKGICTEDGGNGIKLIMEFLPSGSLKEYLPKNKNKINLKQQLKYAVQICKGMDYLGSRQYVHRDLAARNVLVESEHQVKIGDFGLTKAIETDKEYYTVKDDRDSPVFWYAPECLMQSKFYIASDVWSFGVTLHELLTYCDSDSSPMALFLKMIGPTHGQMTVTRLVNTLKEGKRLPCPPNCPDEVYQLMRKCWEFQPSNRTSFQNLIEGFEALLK
T3 sequence (P52333 781-1124): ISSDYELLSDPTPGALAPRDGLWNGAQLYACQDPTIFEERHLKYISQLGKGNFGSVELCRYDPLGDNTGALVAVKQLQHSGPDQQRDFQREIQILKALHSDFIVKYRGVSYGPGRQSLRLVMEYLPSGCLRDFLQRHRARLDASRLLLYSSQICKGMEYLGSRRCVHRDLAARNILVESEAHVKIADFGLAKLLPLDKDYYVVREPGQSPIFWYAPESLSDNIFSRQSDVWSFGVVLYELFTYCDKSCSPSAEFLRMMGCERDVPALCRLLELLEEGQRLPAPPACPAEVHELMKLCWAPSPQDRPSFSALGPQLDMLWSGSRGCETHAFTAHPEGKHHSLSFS
T2 sequence (O60674 828-1132): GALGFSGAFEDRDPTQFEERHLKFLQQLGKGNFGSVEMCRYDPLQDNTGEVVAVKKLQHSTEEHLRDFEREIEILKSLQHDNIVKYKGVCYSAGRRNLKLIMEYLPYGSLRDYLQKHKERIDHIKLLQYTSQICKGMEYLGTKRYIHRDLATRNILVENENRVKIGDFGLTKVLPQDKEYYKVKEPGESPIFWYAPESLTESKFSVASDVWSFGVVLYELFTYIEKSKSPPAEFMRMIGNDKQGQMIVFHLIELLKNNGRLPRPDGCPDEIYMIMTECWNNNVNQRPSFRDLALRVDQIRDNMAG
TYK2, sequence (P29597 whole entry): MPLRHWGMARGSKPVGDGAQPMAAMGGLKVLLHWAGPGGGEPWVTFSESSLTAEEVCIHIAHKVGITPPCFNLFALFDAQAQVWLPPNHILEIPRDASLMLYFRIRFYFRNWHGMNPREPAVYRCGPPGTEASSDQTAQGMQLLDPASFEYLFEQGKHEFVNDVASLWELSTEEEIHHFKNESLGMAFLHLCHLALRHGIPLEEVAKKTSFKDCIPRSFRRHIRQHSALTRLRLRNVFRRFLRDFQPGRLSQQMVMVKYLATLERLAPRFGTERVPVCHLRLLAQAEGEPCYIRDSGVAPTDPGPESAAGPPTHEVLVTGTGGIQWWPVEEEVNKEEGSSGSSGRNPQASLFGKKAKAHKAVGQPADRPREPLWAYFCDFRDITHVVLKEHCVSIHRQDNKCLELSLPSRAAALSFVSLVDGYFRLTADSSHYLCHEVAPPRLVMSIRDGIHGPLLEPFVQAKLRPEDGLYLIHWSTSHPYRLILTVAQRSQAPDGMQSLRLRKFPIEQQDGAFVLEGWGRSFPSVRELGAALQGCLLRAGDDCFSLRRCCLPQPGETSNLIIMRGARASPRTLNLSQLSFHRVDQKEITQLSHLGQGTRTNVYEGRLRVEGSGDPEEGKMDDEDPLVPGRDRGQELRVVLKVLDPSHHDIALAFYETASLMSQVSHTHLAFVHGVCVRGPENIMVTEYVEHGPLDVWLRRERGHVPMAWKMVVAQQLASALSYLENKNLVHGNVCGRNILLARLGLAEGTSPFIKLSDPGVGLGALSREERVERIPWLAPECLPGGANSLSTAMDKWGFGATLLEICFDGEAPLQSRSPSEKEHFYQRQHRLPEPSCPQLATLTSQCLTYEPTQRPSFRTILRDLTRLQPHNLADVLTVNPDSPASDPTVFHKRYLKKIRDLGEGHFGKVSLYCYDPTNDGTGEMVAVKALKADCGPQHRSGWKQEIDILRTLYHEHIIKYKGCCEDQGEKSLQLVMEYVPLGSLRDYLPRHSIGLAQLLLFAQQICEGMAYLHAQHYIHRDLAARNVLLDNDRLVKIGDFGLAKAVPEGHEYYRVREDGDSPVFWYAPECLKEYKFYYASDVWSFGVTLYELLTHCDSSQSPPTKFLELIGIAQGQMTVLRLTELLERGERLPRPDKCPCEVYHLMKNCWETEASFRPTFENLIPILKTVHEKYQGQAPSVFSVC

As for `Cn1ccc2c(NC(=O)Nc3ccc4cc3CCc3cccc(c3)Nc3ncc(Cl)c(n3)N4)cccc21` [Example B125, N-[6-Chloro-2,4,8,22-tetraazatetracyclo[14.3.1.1(3,7).1(9,13)]docosa-1(20), 3(22),4,6,9(21),10,12,16,18-nonaen-12-yl]-N′-(1-methyl-1H-indol-4-yl)urea trifluoroacetate], the IC50 in test [1] came out at 2.8 nM; in test [2], 10 nM; in test [3], 76 nM; on TYK2, 30 nM. Besides, the “ALK % of inhibition at a concentration of 500 nM or 1 mM” value (from here on “ALK % of inhibition”) in test [4] turned out to be 34%.

For `CCC(C)c1ccccc1NC(=O)Nc1ccc2cc1CCc1cccc(c1)Nc1ncc(Cl)c(n1)N2` (centres unmarked) [Example B126, N-(2-sec-Butylphenyl)-N′-[6-chloro-2,4,8,22-tetraazatetracyclo[14.3.1.1(3,7).1(9,13)]docosa-1(20),3(22),4,6,9(21),10,12,16,18-nonaen-12-yl]urea trifluoroacetate], the IC50 in test [1] is 8.9 nM; in test [2], 20 nM; in test [3] it was 164 nM; against TYK2 it was 52 nM. Besides, the “ALK % of inhibition” value in test [4] turned out to be 6.1%.

With `O=C(Nc1ccc2cc1CCc1cccc(c1)Nc1ncc(Cl)c(n1)N2)NC12CC3CC(CC(C3)C1)C2` [Example B127, N-1-Adamantyl-N′-[6-chloro-2,4,8,22-tetraazatetracyclo[14.3.1.1(3,7).1(9,13)]docosa-1(20),3(22),4,6,9(21),10,12,16,18-nonaen-12-yl]urea trifluoroacetate], the IC50 in test [1] was 25 nM; in test [2], 27 nM; in test [3], 182 nM; against TYK2 it was 89 nM. Also, the “ALK % of inhibition” value in test [4] is reported as 6.1%.

On to `O=C(Nc1ccc2cc1CCc1cccc(c1)Nc1ncc(Cl)c(n1)N2)Nc1ccccc1OC(F)F` [Example B128, N-[6-Chloro-2,4,8,22-tetraazatetracyclo[14.3.1.1(3,7).1(9,13)]docosa-1(20), 3(22),4,6,9(21),10,12,16,18-nonaen-12-yl]-N′-[2-(difluoromethoxy)phenyl]urea trifluoroacetate], for which the IC50 worked out at 0.69 nM in test [1], 1.8 nM in test [2], 13 nM in test [3] and 9.2 nM against TYK2. Besides, the “ALK % of inhibition” value in test [4] turned out to be 32%.

`CC1(C)Cc2cccc(NC(=O)Nc3ccc4cc3CCc3cccc(c3)Nc3ncc(Cl)c(n3)N4)c2O1` [Example B129, N-[6-Chloro-2,4,8,22-tetraazatetracyclo[14.3.1.1(3,7).1(9,13)]docosa-1(20),3(22),4,6,9(21),10,12,16,18-nonaen-12-yl]-N′-(2,2-dimethyl-2,3-dihydro-1-benzofuran-7-yl)urea trifluoroacetate]: the IC50 amounted to 3.7 nM in test [1], 9.5 nM in test [2], 184 nM in test [3] and 32 nM on TYK2. For the same molecule, the “ALK % of inhibition” value in test [4] was 7.3%.

As for `O=C(Nc1ccc2cc1CCc1cccc(c1)Nc1ncc(Cl)c(n1)N2)Nc1ccccc1-c1ccccc1` [Example B130, N-Biphenyl-2-yl-N′-[6-chloro-2,4,8,22-tetraazatetracyclo[14.3.1.1(3,7).1(9,13)]docosa-1(20),3(22),4,6,9(21),10,12,16,18-nonaen-12-yl]urea trifluoroacetate], the IC50 in test [1] was found to be 11 nM; in test [2] it was 11 nM; in test [3], 331 nM; against TYK2, 64 nM. In addition, the “ALK % of inhibition” value in test [4] is recorded as 0%.

As for `O=C(Nc1ccc2cc1CCc1cccc(c1)Nc1ncc(Cl)c(n1)N2)Nc1ccccc1OC(F)(F)F` [Example B131, N-[6-Chloro-2,4,8,22-tetraazatetracyclo[14.3.1.1(3,7).1(9,13)]docosa-1(20), 3(22),4,6,9(21),10,12,16,18-nonaen-12-yl]-N′-[2-(trifluoromethoxy)phenyl]urea trifluoroacetate], the 50% inhibitory concentration (IC50) in test [1] is 7.3 nM; in test [2] it was 13 nM; in test [3] it was 63 nM; at TYK2 it was 33 nM. The “ALK % of inhibition” value in test [4] was 5.9%.

Regarding `O=C(Nc1ccc(OC(F)(F)F)cc1)Nc1ccc2cc1CCc1cccc(c1)Nc1ncc(Cl)c(n1)N2` [Example B132, N-[6-Chloro-2,4,8,22-tetraazatetracyclo[14.3.1.1(3,7).1(9,13)]docosa-1(20), 3(22),4,6,9(21),10,12,16,18-nonaen-12-yl]-N′-[4-(trifluoromethoxy)phenyl]urea trifluoroacetate], the IC50 in test [1] stood at 11 nM; in test [2], 27 nM; in test [3], 198 nM; against TYK2, 96 nM. Moreover, the “ALK % of inhibition” value in test [4] was determined as 5%.

In the case of `O=C(Nc1cccc(N2CCOCC2)n1)Nc1ccc2cc1CCc1cccc(c1)Nc1ncc(Cl)c(n1)N2` [Example B133, N-[6-Chloro-2,4,8,22-tetraazatetracyclo[14.3.1.1(3,7).1(9,13)]docosa-1(20), 3(22),4,6,9(21),10,12,16,18-nonaen-12-yl]-N′-(6-morpholin-4-ylpyridin-2-yl)urea bis(trifluoroacetate)], the IC50 in test [1] was found to be 44 nM; in test [2] it was 85 nM; in test [3], 376 nM; on TYK2, 288 nM. For the same molecule, the “ALK % of inhibition” value in test [4] is listed as 2.5%.

On to `CNC(=O)Nc1ccc2cc1CCc1cncc(c1)Nc1ncc(Cl)c(n1)N2` [Example B135, N-[6-Chloro-2,4,8,18,22-pentaazatetracyclo[14.3.1.1(3,7).1(9,13)]docosa-1(20),3(22),4,6,9(21),10,12,16,18-nonaen-12-yl]-N′-methylurea bis(trifluoroacetate)], for which the concentration for half-maximal inhibition (IC50) came out at 0.69 nM in test [1], 4.3 nM in test [2], 30 nM in test [3] and 6.8 nM against TYK2. Moreover, the “ALK % of inhibition” value in test [4] was determined as 13%.

Turning to `O=S(=O)(Nc1ccc2cc1CCc1cccc(c1)Nc1ncc(Cl)c(n1)N2)c1ccccc1` [Example B136, N-[6-Chloro-2,4,8,22-tetraazatetracyclo[14.3.1.1(3,7).1(9,13)]docosa-1(20), 3(22),4,6,9(21),10,12,16,18-nonaen-12-yl]benzenesulfonamide trifluoroacetate], the IC50 in test [1] was 0.24 nM; in test [2], 0.1 nM; in test [3] it was 2.3 nM; on TYK2, 0.76 nM; in test [4], 240 nM.

Regarding `O=S(=O)(Nc1ccc2cc1CCc1cccc(c1)Nc1ncc(Cl)c(n1)N2)c1ccccc1Cl` [Example B137, 2-Chloro-N-[6-chloro-2,4,8,22-tetraazatetracyclo[14.3.1.1(3,7).1(9,13)]docosa-1(20),3(22),4,6,9(21),10,12,16,18-nonaen-12-yl]benzenesulfonamide trifluoroacetate], the IC50 in test [1] was found to be 0.42 nM; in test [2] it was 0.11 nM; in test [3] it was 6.4 nM; against TYK2 it was 0.27 nM; in test [4], 580 nM.

Regarding `O=S(=O)(Nc1ccc2cc1CCc1cccc(c1)Nc1ncc(Cl)c(n1)N2)c1cccc(Cl)c1` [Example B138, 3-Chloro-N-[6-chloro-2,4,8,22-tetraazatetracyclo[14.3.1.1(3,7).1(9,13)]docosa-1(20),3(22),4,6,9(21),10,12,16,18-nonaen-12-yl]benzenesulfonamide trifluoroacetate], the IC50 in test [1] amounted to 0.25 nM; in test [2] it was 0.1 nM; in test [3], 0.33 nM; on TYK2, 0.35 nM; in test [4], 100 nM.

As to `O=S(=O)(Nc1ccc2cc1CCc1cccc(c1)Nc1ncc(Cl)c(n1)N2)c1ccc(Cl)cc1` [Example B139, 4-Chloro-N-[6-chloro-2,4,8,22-tetraazatetracyclo[14.3.1.1(3,7).1(9,13)]docosa-1(20),3(22),4,6,9(21),10,12,16,18-nonaen-12-yl]benzenesulfonamide trifluoroacetate], the IC50 in test [1] came to 0.5 nM; in test [2], 0.1 nM; in test [3], 5.1 nM; against TYK2 it was 0.84 nM; in test [4] it was 290 nM.

With `CS(=O)(=O)Nc1ccc2cc1CCc1cccc(c1)Nc1ncc(Cl)c(n1)N2` [Example B140, N-[6-Chloro-2,4,8,22-tetraazatetracyclo[14.3.1.1(3,7).1(9,13)]docosa-1(20), 3(22),4,6,9(21),10,12,16,18-nonaen-12-yl]methanesulfonamide trifluoroacetate], the IC50 in test [1] turned out to be 0.51 nM; in test [2] it was 0.2 nM; in test [3] it was 1.3 nM; against TYK2 it was 0.89 nM; in test [4], 150 nM.

As for `CCS(=O)(=O)Nc1ccc2cc1CCc1cccc(c1)Nc1ncc(Cl)c(n1)N2` [Example B141, N-[6-Chloro-2,4,8,22-tetraazatetracyclo[14.3.1.1(3,7).1(9,13)]docosa-1(20), 3(22),4,6,9(21),10,12,16,18-nonaen-12-yl]ethanesulfonamide trifluoroacetate], the IC50 in test [1] was determined as 0.8 nM; in test [2] it was 0.2 nM; in test [3] it was 3 nM; against TYK2, 1.2 nM; in test [4], 740 nM.
